Some test systems named below: Acinetobacter junii RT-4; Escherichia coli D21; Staphylococcus capitis 1; Bacillus megaterium Bm11; Saccharomyces cerevisiae; Staphylococcus aureus 5; Staphylococcus aureus; Pseudomonas aeruginosa 1; Pseudomonas aeruginosa 5; Staphylococcus aureus 1; Staphylococcus aureus 4; Enterococcus faecium; Pseudomonas aeruginosa 2; Escherichia coli O157; Escherichia coli; Pseudomonas aeruginosa.

What all share (assay): ≥ marks a high value that may be exact or a test limit, other limits are often not marked, values filed in µg/mL are converted to µM
The test system of assay [1] is Yersinia pseudotuberculosis YPIII.
Assay [2] deals with Staphylococcus epidermidis ATCC 12228.
Assay [3] relates to Pseudomonas aeruginosa ATCC 15692.
The test system of assay [4] is Enterococcus faecalis ATCC 29212.
Assay [5] concerns Escherichia coli ATCC 25922.
Assay [6] relates to Streptococcus pyogenes ATCC 21547.
Assay [7] relates to Pseudomonas syringae pv. tabaci 1918NCPPB.
Assay [8] concerns Candida albicans ATCC 10231.
The test system of assay [9] is Acinetobacter baumannii ATCC 19606.
The test system of assay [10] is Schizosaccharomyces pombe.
Assay [11] deals with Staphylococcus aureus ATCC 25923.
Assay [12] concerns Staphylococcus aureus Cowan 1.
In assay [13] the test system is Pseudomonas aeruginosa ATCC 27853.
Assay [14] relates to Escherichia coli O157:H7 ATCC 43895.
Assay [15] concerns Candida albicans ATCC 90028.
Assay [16] relates to Enterococcus faecium ATCC 19434.
Assay [17] concerns Aspergillus flavus KCTC 1375.
The subject of assay [18] is Malassezia furfur KCTC 7744.
Assay [19] concerns Bacillus subtilis KCTC 1918.
The test system of assay [20] is Salmonella typhimurium KCTC 1926.
In assay [21] the test system is Trichosporon beigelii KCTC 7707.
Assay [22] deals with Proteus vulgaris KCTC 2433.
For assay [23], the system named is Staphylococcus aureus KCTC 1621.
Assay [24] has as its system Candida albicans TIMM 1768.
Assay [25] concerns Saccharomyces cerevisiae KCTC 7296.
The test system of assay [26] is Klebsiella pneumoniae ATCC 13885.
For assay [27], the system named is Enterococcus faecalis ATCC 12953.
The test system of assay [28] is Salmonella enterica subsp. enterica serovar Typhimurium ATCC 14028.
Assay [29] concerns Escherichia coli ATCC 8739.
Assay [30] has as its system Staphylococcus aureus ATCC 29213.
Assay [31] concerns Pseudomonas aeruginosa ATCC 15442.
The subject of assay [32] is Bacillus subtilis ATCC 6633.
The test system of assay [33] is Streptococcus pyogenes ATCC 19615.
Assay [34] concerns Proteus mirabilis ATCC 25933.

Here are results for five molecules from DBAASP.

≈ marks a conversion by molar mass, not a printed value. Where only a bound is given, the exact number is not on record here.

In the case of `CC[C@H](C)[C@H](NC(=O)[C@H](CCCN=C(N)N)NC(=O)CNC(=O)[C@H](CC(C)C)NC(=O)[C@H](Cc1ccccc1)NC(=O)[C@H](CCCCN)NC(=O)[C@H](CO)NC(=O)[C@H](Cc1ccccc1)NC(=O)[C@H](Cc1c[nH]c2ccccc12)NC(=O)[C@H](CCCN=C(N)N)NC(=O)[C@@H](NC(=O)[C@@H](N)Cc1ccccc1)C(C)C)C(=O)N[C@@H](CC(C)C)C(N)=O` [FVRWFSKFLGRIL], the MIC in [1] is 3 µM (≈ 5 µg/mL); in [2], 3 µM (≈ 5 µg/mL); in assay [3], 12 µM (≈ 20 µg/mL); in assay [4], 12 µM (≈ 20 µg/mL); in the assay with Acinetobacter junii RT-4, 3 µM (≈ 5 µg/mL); in the assay on Escherichia coli D21 it was 12 µM (≈ 20 µg/mL). Also, the MIC in assay [5] was found to be 24 µM (≈ 40 µg/mL); in assay [6], 3 µM (≈ 5 µg/mL); in assay [7], 6 µM (≈ 10 µg/mL); in assay [8], 12 µM (≈ 20 µg/mL); against Staphylococcus capitis 1, 3 µM (≈ 5 µg/mL); in assay [9] it was 6 µM (≈ 10 µg/mL). Moreover, the MIC in assay [10] is 12 µM (≈ 20 µg/mL); with Bacillus megaterium Bm11, 3 µM (≈ 5 µg/mL); in [11], 6 µM (≈ 10 µg/mL); in assay [12] it was 6 µM (≈ 10 µg/mL); against Saccharomyces cerevisiae, 24 µM (≈ 40 µg/mL); in assay [13] it was 24 µM (≈ 40 µg/mL).

Take `CC[C@H](C)[C@H](NC(=O)[C@H](CC(C)C)NC(=O)[C@H](CCCN=C(N)N)NC(=O)[C@@H](NC(=O)[C@H](C)NC(=O)[C@H](CCCCN)NC(=O)[C@H](CO)NC(=O)[C@H](CC(C)C)NC(=O)[C@@H](N)CCC(=O)O)C(C)C)C(=O)N[C@@H](CCCCN)C(=O)O` [ELSKAVRLIK]: the minimum inhibitory concentration (MIC) in the assay on Staphylococcus aureus 5 is at least 40 µM; against Staphylococcus aureus, 20 µM (≈ 23.1 µg/mL); with Pseudomonas aeruginosa 1, 20 µM (≈ 23.1 µg/mL); in the assay on Pseudomonas aeruginosa 5, 14.1 µM (≈ 16.4 µg/mL); in the assay with Staphylococcus aureus 1, 10 µM (≈ 11.6 µg/mL); with Staphylococcus aureus 4, 14.1 µM (≈ 16.4 µg/mL). The MIC in the assay with Enterococcus faecium came to 10 µM (≈ 11.6 µg/mL); in the assay with Pseudomonas aeruginosa 2 it was 10 µM (≈ 11.6 µg/mL); in the assay on Escherichia coli O157, 20 µM (≈ 23.1 µg/mL).

In the case of `CC(C)C[C@H](NC(=O)[C@H](Cc1ccc(O)cc1)NC(=O)[C@H](Cc1cnc[nH]1)NC(=O)[C@@H](NC(=O)[C@H](CC(C)C)NC(=O)[C@H](C)NC(=O)[C@H](C)NC(=O)[C@H](CCCCN)NC(=O)CNC(=O)[C@@H](NC(=O)[C@H](Cc1cnc[nH]1)NC(=O)[C@H](CCCCN)NC(=O)CNC(=O)[C@@H](NC(=O)[C@H](Cc1cnc[nH]1)NC(=O)[C@H](C)NC(=O)[C@H](C)NC(=O)[C@H](CCCCN)NC(=O)[C@H](CCCCN)NC(=O)[C@H](Cc1ccccc1)NC(=O)[C@H](Cc1ccccc1)NC(=O)[C@@H](N)CO)C(C)C)C(C)C)[C@@H](C)O)C(N)=O` [SFFKKAAHVGKHVGKAALTHYL], the MIC in [14] is 20 µM (≈ 48.2 µg/mL); with Staphylococcus aureus it was 14.1 µM (≈ 34.1 µg/mL); in [15], 14.1 µM (≈ 34.1 µg/mL); in the assay with Escherichia coli it was 28.3 µM (≈ 68.2 µg/mL); in [16], 20 µM (≈ 48.2 µg/mL); against Pseudomonas aeruginosa, 28.3 µM (≈ 68.2 µg/mL). For the same molecule, the MIC in assay [17] stood at 20 µM (≈ 48.2 µg/mL); in assay [18] it was 20 µM (≈ 48.2 µg/mL); in [11] it was 20 µM (≈ 48.2 µg/mL); against Enterococcus faecium, 28.3 µM (≈ 68.2 µg/mL); in [13] it was 14.1 µM (≈ 34.1 µg/mL).

Take `CC[C@H](C)[C@H](NC(=O)CNC(=O)[C@H](CC(C)C)NC(=O)[C@H](CCCN=C(N)N)NC(=O)[C@H](CCCCN)NC(=O)[C@H](Cc1ccccc1)NC(=O)[C@@H](NC(=O)[C@H](CCCCN)NC(=O)[C@H](CCCCN)NC(=O)[C@H](C)N)C(C)C)C(=O)NCC(=O)N[C@@H](C)C(=O)N[C@H](C(=O)N[C@@H](CC(C)C)C(=O)N[C@@H](CCCCN)C(=O)N[C@H](C(=O)N[C@@H](CC(C)C)C(=O)N[C@@H](CCCCN)C(=O)N[C@@H](CCCCN)C(=O)NCC(=O)O)C(C)C)C(C)C` [AKKVFKRLGIGAVLKVLKKG]: the MIC in [19] amounted to 0.78 µM (≈ 1.68 µg/mL); in assay [20], 0.19 µM (≈ 0.409 µg/mL); in [21] it was 4.42 µM (≈ 9.52 µg/mL); in [22], 0.39 µM (≈ 0.84 µg/mL); in assay [23] it was 1.56 µM (≈ 3.36 µg/mL); in assay [24], 6.25 µM (≈ 13.5 µg/mL). In assay [25], this molecule registered an MIC of 6.25 µM (≈ 13.5 µg/mL).

Turning to `CC[C@H](C)[C@H](N)C(=O)N[C@@H](CCCCN)C(=O)N[C@@H](Cc1ccccc1)C(=O)N[C@@H](CCC(=O)O)C(=O)N1CCC[C@H]1C(=O)N1CCC[C@H]1C(=O)N[C@@H](CC(C)C)C(=O)N1CCC[C@H]1C(=O)N1CCC[C@H]1C(=O)N[C@@H](CCCCN)C(=O)N[C@@H](CCCCN)C(=O)N[C@@H](C)C(=O)N[C@@H](Cc1cnc[nH]1)C(N)=O` [IKFEPPLPPKKAH], the MIC in assay [26] was 21.3 µM (≈ 32 µg/mL); in assay [27], at least 42.6 µM; in [28] it was 42.6 µM (≈ 64 µg/mL); in assay [29] it was 21.3 µM (≈ 32 µg/mL); in assay [30] it was 42.6 µM (≈ 64 µg/mL); in [31], 21.3 µM (≈ 32 µg/mL). In addition, the MIC in assay [32], in [33] and in assay [34] was at least 42.6 µM each time.
